In patent US7507727B2, “Substituted quinobenzoxazine analogs and methods of using thereof” (Cylene Pharmaceuticals, Inc., priority 2003, dated 2009) one finds IC50 data, which are given here for 59 molecules.

For one experiment, the target named is c-Myc template DNA (c-myc quadruplex). The experiment is described as follows: Quadruplex binding / stop assay (Taq polymerase arrest, capillary electrophoresis). The conditions noted are these: read-out: S DATA; Table 1D, stop assay data.
In the case of `Cn1cccc1CN1CCN(c2c(F)cc3c(=O)c(C(=O)NCCN4CCCC4)cn4c3c2Oc2cc(Cl)ccc2-4)CC1` [compound 1830], the IC50 amounted to 8.6 µM.

In the case of `CN1CCN(CCCNc2ccc3c(=O)c(C(=O)NCCCN4CCOCC4)cn4c3c2Oc2cc3ccccc3cc2-4)CC1` [compound 1554], the IC50 stood at 1.75 µM.

Turning to `CC1(C)CC(NC(=O)c2cn3c4c(c(N5CCC(N)C5)c(F)cc4c2=O)Oc2ccccc2-3)CC(C)(C)N1` (centres unmarked) [compound 1626], the IC50 is over 15 µM.

As for `CN1CCCC1CCNC(=O)c1cn2c3c(c(NC4CC(C)(C)N(O)C(C)(C)C4)c(F)cc3c1=O)Oc1cc3ccccc3cc1-2` (centres unmarked) [compound 1484], the IC50 turned out to be 1.75 µM.

Turning to `NC1CCN(c2c(F)cc3c(=O)c(C(=O)NCCN4CCOCC4)cn4c3c2Oc2ccccc2-4)C1` (centres unmarked) [compound 1620], the IC50 was over 15 µM.

With `CN1CCCC1CCNC(=O)c1cn2c3c(c(NCCC4CCCN4C)ccc3c1=O)Oc1cc3ccccc3cc1-2` (centres unmarked) [compound 1523], the IC50 is 0.75 µM.

On to `CC(C)N1CCN(c2c(F)cc3c(=O)c(C(=O)N4CCC(NC(=O)OC(C)(C)C)C4)cn4c3c2Oc2ccccc2-4)CC1` (centres unmarked) [compound 1564], for which the IC50 was over 15 µM.

For the molecule `CCCCN1CCC(CNc2c(F)cc3c(=O)c(C(=O)NCCC4CCCN4C)cn4c3c2Oc2cc3ccccc3cc2-4)CC1` (centres unmarked) [compound 1691], the IC50 turned out to be 1 µM.

Regarding `CN1CCCC1CCNC(=O)c1cn2c3c(c(F)c(F)cc3c1=O)Oc1cc3ccccc3cc1-2` (centres unmarked) [compound 1738], the IC50 came to 2.25 µM.

For `CN1CCCC1CCNC(=O)c1cn2c3c(c(N4CCC(c5ccccc5F)C4)c(F)cc3c1=O)Oc1cc3ccccc3cc1-2` (centres unmarked) [compound 1771], the IC50 was 10 µM.

Take `CN1CCN(CCCNc2c(F)cc3c(=O)c(C(=O)NCCN4CCCC4)cn4c3c2Oc2ccccc2-4)CC1` [compound 1577]: the IC50 was over 15 µM.

For `CC(C)OCCCNC(=O)c1cn2c3c(c(N4CCC(N)C4)c(F)cc3c1=O)Oc1cc3ccccc3cc1-2` (centres unmarked) [compound 1710], the IC50 is over 15 µM.

As for `COc1ccc(CCNc2c(F)cc3c(=O)c(C(=O)N(C)CCc4ccccn4)cn4c3c2Oc2cc3ccccc3cc2-4)cc1OC` [compound 1759], the IC50 turned out to be 10 µM.

On to `CN1CCCC1CCNC(=O)c1cn2c3c(c(N(C)C4CCN(Cc5ccccc5)CC4)c(F)cc3c1=O)Oc1cc3ccccc3cc1-2` (centres unmarked) [compound 1487], for which the IC50 amounted to 1.75 µM.

Take `CN1CCC[C@@H]1CCNC(=O)c1cn2c3c(c(N4CCC(c5cnccn5)C4)c(F)cc3c1=O)Oc1cc3ccccc3cc1-2` (some centres unmarked) [compound 1741]: the IC50 was found to be 0.74 µM.

With `O=C(NCCN1CCCC1)c1cn2c3c(c(NCCN4CCCC4)c(F)cc3c1=O)Oc1ccccc1-2` [compound 1597], the IC50 is over 15 µM.

`O=C(NCCN1CCOCC1)c1cn2c3c(c(NCCCN4CCOCC4)ccc3c1=O)Oc1cc3ccccc3cc1-2` [compound 1533]: the IC50 was over 15 µM.

For the molecule `CN(C)CCCCNc1ccc2c(=O)c(C(=O)NCCN3CCOCC3)cn3c2c1Oc1cc2ccccc2cc1-3` [compound 1545], the IC50 is 0.75 µM.

Regarding `CC(C)N1CCN(c2c(F)cc3c(=O)c(C(=O)N4CCC(N)C4)cn4c3c2Oc2ccccc2-4)CC1` (centres unmarked) [compound 1627], the IC50 was over 15 µM.

On to `CN1CCC(N(C)c2c(F)cc3c(=O)c(C(=O)NCCC4CCCN4C)cn4c3c2Oc2cc3ccccc3cc2-4)CC1` (centres unmarked) [compound 1486], for which the IC50 amounted to 1.75 µM.

`CN(C)CCCCNC(=O)c1cn2c3c(c(NCCC4CCCN4C)ccc3c1=O)Oc1cc3ccccc3cc1-2` (centres unmarked) [compound 1526]: the IC50 was determined as 0.75 µM.

As to `NC1CCN(C(=O)c2cn3c4c(c(NCCN5CCCC5)c(F)cc4c2=O)Oc2ccccc2-3)C1` (centres unmarked) [compound 1629], the IC50 is over 15 µM.

Regarding `CN1CCCC1CCNC(=O)c1cn2c3c(c(N4C[C@@H](NC(=O)OC(C)(C)C)[C@H](c5ccccc5)C4)c(F)cc3c1=O)Oc1cc3ccccc3cc1-2` (some centres unmarked) [compound 1514], the IC50 is over 15 µM.

The experiment is the same for the next values; noted with them: read-out: Stop Data c-Myc μM; concentration at which 50% of the DNA was arrested (arrested:full-length 1:1).
Regarding `CN1CCCC1CCNC(=O)c1cn2c3c(c(C4C[C@@H](N)[C@H](c5ccccc5)C4)c(F)cc3c1=O)Oc1cc3ccccc3cc1-2` (some centres unmarked) [compound 458], the IC50 is 0.75 µM.

`O=C(NCCCn1ccnc1)c1cn2c3c(c(NCCCN4CCOCC4)c(F)cc3c1=O)Oc1cc3c(cc1-2)-c1ccccc1C3` [compound 314]: the IC50 came out at 1 µM.

Turning to `CN1CCCC1CCNC(=O)c1cn2c3c(c(N4CCC(N5CCCCC5)CC4)c(F)cc3c1=O)Oc1cc3ccccc3cc1-2` (centres unmarked) [compound 254], the IC50 amounted to 1.75 µM.

For `O=C(NCCCN1CCOCC1)c1cn2c3c(c(NCCCN4CCOCC4)c(F)cc3c1=O)Oc1cc3c(cc1-2)oc1ccccc13` [compound 143], the IC50 is 1.75 µM.

As for `CN(C)CCCCNC(=O)c1cn2c3c(c(N4CCC(NC(=O)OC(C)(C)C)C4)c(F)cc3c1=O)Oc1cc3c(cc1-2)oc1ccccc13` (centres unmarked) [compound 155], the IC50 came to 1.75 µM.

`O=C(NCCCn1ccnc1)c1cn2c3c(c(NCCCn4ccnc4)c(F)cc3c1=O)Oc1cc3ccccc3cc1-2` [compound 40]: the IC50 amounted to 2.5 µM.

As to `CN1CCCC1CCNC(=O)c1cn2c3c(c(NCCN4CCCC4)ccc3c1=O)Oc1cc3ccccc3cc1-2` (centres unmarked) [compound 446], the IC50 is 0.75 µM.

As for `N[C@@H]1CCN(c2c(F)cc3c(=O)c(C(=O)NCCCn4ccnc4)cn4c3c2Oc2c-4ccc3ccccc23)C1` [compound 157], the IC50 was determined as 1.75 µM.

Take `O=C(NCCN1CCCC1)c1cn2c3c(c(NCCN4CCOCC4)c(F)cc3c1=O)Oc1cc3c(cc1-2)oc1ccccc13` [compound 148]: the IC50 was found to be 1.75 µM.

With `CN1CCCC1CCNC(=O)c1cn2c3cc4c(=O)c5ccccc5c(=O)c4cc3oc3c(N4CCC(NC(=O)OC(C)(C)C)C4)c(F)cc(c1=O)c32` (centres unmarked) [compound 168], the IC50 came out at 1.75 µM.

Consider `N[C@@H]1CCN(c2c(F)cc3c(=O)c(C(=O)NCCN4CCCC4)cn4c3c2Oc2c-4ccc3ccccc23)C1` [compound 401], for which the IC50 stood at 0.75 µM.

With `CN1CCN(CCCNc2ccc3c(=O)c(C(=O)NCCN4CCCC4)cn4c3c2Oc2cc3ccccc3cc2-4)CC1` [compound 454], the IC50 is 0.75 µM.

As for `CN1CCN(CCCNC(=O)c2cn3c4c(c(NCCCN5CCN(C)CC5)c(F)cc4c2=O)Oc2cc4ccccc4cc2-3)CC1` [compound 342], the IC50 turned out to be 0.9 µM.

As for `O=C(O)c1cn2c3c(c(NCCCN4CCOCC4)c(F)cc3c1=O)Oc1cc3c(O)ncnc3cc1-2` [compound 12], the IC50 stood at 1.75 µM.

Consider `CN1CCC[C@H]1CCNC(=O)c1cn2c3c(c(N4CCC(c5cnccn5)C4)c(F)cc3c1=O)Oc1cc3ccccc3cc1-2` (some centres unmarked) [compound 469], for which the IC50 worked out at 0.73 µM.

For `CC(C)(C)OC(=O)NC1CCN(c2c(F)c(N)c3c(=O)c(C(=O)N4CCOCC4)cn4c3c2Oc2cc3ccccc3cc2-4)C1` (centres unmarked) [compound 230], the IC50 was 1.75 µM.

In the case of `O=C(NCCN1CCCC1)c1cn2c3c(c(NCCN4CCCC4)c(F)cc3c1=O)Oc1cc3ccccc3cc1-2` [compound 74], the IC50 worked out at 2.5 µM.

Consider `CC(=O)N1CCN(C(=O)c2cn3c4c(c(N5CCC(N)C5)c(F)cc4c2=O)Oc2cc4ccccc4cc2-3)CC1` (centres unmarked) [compound 201], for which the IC50 was found to be 1.75 µM.

Turning to `CN1CCCC1CCNC(=O)c1cn2c3c(c(NCCN4CCCC4)c(F)cc3c1=O)Oc1cc3ccccc3cc1-2` (centres unmarked) [compound 73], the IC50 came out at 2.5 µM.

Consider `CN1CCC(N(C)c2c(F)cc3c(=O)c(C(=O)NCCC4CCCN4C)cn4c3c2Oc2cc3ccccc3cc2-4)CC1` (centres unmarked) [compound 257], for which the IC50 was 1.75 µM.

Regarding `CC(C)(C)OC(=O)N[C@@H]1CCN(c2c(F)cc3c(=O)c(C(=O)NCCCCN=C(N)N)cn4c3c2Oc2cc3ccccc3cc2-4)C1` [compound 322], the IC50 was found to be 1 µM.

`CN1CCN(CCCNC(=O)c2cn3c4c(c(NCCCN5CCN(C)CC5)c(F)cc4c2=O)Oc2cc4c(cc2-3)oc2ccccc24)CC1` [compound 151]: the IC50 stood at 1.75 µM.

Regarding `CN1CCN(CCCNC(=O)c2cn3c4c(c(N5CC[C@@H](NC(=O)CCN6CCCC6)C5)c(F)cc4c2=O)Oc2cc4c(cc2-3)oc2ccccc24)CC1` [compound 174], the IC50 amounted to 1.75 µM.

`CN1CCN(C(=O)c2cn3c4c(c(NCCC5CCCN5C)c(F)cc4c2=O)Oc2c-3ccc3ccccc23)CC1` (centres unmarked) [compound 75]: the IC50 was 2.5 µM.

As to `COc1ccc2[nH]cc(CCNc3c(F)cc4c(=O)c(C(=O)NCCC5CCCN5C)cn5c4c3Oc3cc4ccccc4cc3-5)c2c1` (centres unmarked) [compound 290], the IC50 came to 1.75 µM.

Consider `O=C(NCCCN1CCOCC1)c1cn2c3c(c(NCCCN4CCOCC4)c(F)cc3c1=O)Oc1ccccc1-2` [compound 47], for which the IC50 was determined as 2.5 µM.

With `CN1CCCC1CCNc1c(F)cc2c(=O)c(C(=O)O)cn3c2c1Oc1cc2ccccc2cc1-3` (centres unmarked) [compound 7], the IC50 stood at 1.75 µM.

For `CN1CCCC1CCNC(=O)c1cn2c3cc4c(=O)c5ccccc5c(=O)c4cc3oc3c(NCCC4CCCN4C)c(F)cc(c1=O)c32` (centres unmarked) [compound 346], the IC50 was determined as 0.9 µM.

As for `CN(C)c1cccc(CNc2c(F)cc3c(=O)c(C(=O)NCCC4CCCN4C)cn4c3c2Oc2cc3ccccc3cc2-4)c1` (centres unmarked) [compound 464], the IC50 came to 0.75 µM.

In the case of `CN1CCCC1CCNC(=O)c1cn2c3c(c(NC4CCS(=O)(=O)C4)c(F)cc3c1=O)Oc1cc3ccccc3cc1-2` (centres unmarked) [compound 338], the IC50 came to 1 µM.

For `CN1CCN(CCCNc2c(F)cc3c(=O)c(C(=O)NCCC4CCCN4C)cn4c5cc6c(=O)c7ccccc7c(=O)c6cc5oc2c34)CC1` (centres unmarked) [compound 349], the IC50 was determined as 0.9 µM.

In the case of `CN1CCCC1CCNc1c(F)cc2c(=O)c(C(=O)N3CC[C@H](NC(=O)OC(C)(C)C)C3)cn3c4cc5c(cc4oc1c23)c(=O)c1ccccc15` (some centres unmarked) [compound 206], the IC50 came out at 1.75 µM.

For the molecule `NC1CCN(c2c(F)cc3c(=O)c(C(=O)NCCCCN4CCCC4)cn4c3c2Oc2cc3ccccc3cc2-4)C1` (centres unmarked) [compound 431], the IC50 turned out to be 0.75 µM.

With `CC(O)CNc1c(F)cc2c(=O)c(C(=O)NCCC3CCCN3C)cn3c2c1Oc1cc2ccccc2cc1-3` (centres unmarked) [compound 283], the IC50 is 1.75 µM.

For `CCN1CCCC1CNc1c(F)cc2c(=O)c(C(=O)N3CCOCC3)cn3c2c1Oc1cc2ccccc2cc1-3` (centres unmarked) [compound 42], the IC50 came out at 2.5 µM.

For the molecule `O=C(NCCN1CCOCC1)c1cn2c3c(c(NCCCN4CCOCC4)c(F)cc3c1=O)Oc1cc3ccccc3cc1-2` [compound 48], the IC50 worked out at 2.5 µM.
